Data taken from the NIST ThermoML archive (doi:10.1016/j.jct.2016.09.030).
Numbers after ± are expanded uncertainties.

What was measured:
[1] = refractive index (Na D-line) (dimensionless); xn = mol fraction of the nth substance listed; conditions: 100 kPa, Liquid, Standard Abbe refractometry, x2 = 0
[2] = xn = mol fraction of the nth substance listed; conditions: 100 kPa, Liquid, x2 = 0; for viscosity: Concentric cylinders viscometry; for mass density: Vibrating tube method
[3] = 100 kPa, Liquid; for viscosity: Concentric cylinders viscometry; for mass density: Vibrating tube method
[4] = refractive index (Na D-line) (dimensionless); conditions: 100 kPa, Liquid, Standard Abbe refractometry

**Q.** For CC(C)CO [2-methyl-1-propanol] + CCCCCCCC(=O)OCC, which refractive index ([1]; 288.15 K) is on record?
**A.** 1.3978 ± 0.0028

**Q.** What about the refractive index ([1]; 293.15 K) of the same molecule?
**A.** 1.3958 ± 0.0028

**Q.** What about the refractive index ([1]; 298.15 K) of the same molecule?
**A.** 1.3937 ± 0.0028

**Q.** And the refractive index ([1]; 303.15 K)?
**A.** 1.3916 ± 0.0028

**Q.** And the refractive index ([1]; 308.15 K)?
**A.** 1.3895 ± 0.0028

**Q.** What about the refractive index ([1]; 313.15 K) of the same molecule?
**A.** 1.3874 ± 0.0028

**Q.** What about the refractive index ([1]; 318.15 K) of the same molecule?
**A.** 1.3853 ± 0.0028

**Q.** What about the refractive index ([1]; 323.15 K) of the same molecule?
**A.** 1.383 ± 0.0028

**Q.** And the viscosity ([2]; 288.15 K)?
**A.** 4.829 ± 0.039 mPa·s

**Q.** What about the mass density ([2]; 288.15 K) of the same molecule?
**A.** 805.88 ± 1.6 kg/m3

**Q.** And the viscosity ([2]; 293.15 K)?
**A.** 4.052 ± 0.033 mPa·s

**Q.** And the mass density ([2]; 293.15 K)?
**A.** 802.03 ± 1.6 kg/m3

**Q.** And the viscosity ([2]; 298.15 K)?
**A.** 3.431 ± 0.028 mPa·s

**Q.** What about the mass density ([2]; 298.15 K) of the same molecule?
**A.** 798.16 ± 1.6 kg/m3

**Q.** And the viscosity ([2]; 303.15 K)?
**A.** 2.923 ± 0.024 mPa·s

**Q.** And the mass density ([2]; 303.15 K)?
**A.** 794.25 ± 1.6 kg/m3

**Q.** And the viscosity ([2]; 308.15 K)?
**A.** 2.505 ± 0.021 mPa·s

**Q.** And the mass density ([2]; 308.15 K)?
**A.** 790.31 ± 1.6 kg/m3

**Q.** What about the viscosity ([2]; 313.15 K) of the same molecule?
**A.** 2.161 ± 0.018 mPa·s

**Q.** And the mass density ([2]; 313.15 K)?
**A.** 786.31 ± 1.6 kg/m3

**Q.** And the viscosity ([2]; 318.15 K)?
**A.** 1.875 ± 0.016 mPa·s

**Q.** And the mass density ([2]; 318.15 K)?
**A.** 782.26 ± 1.6 kg/m3

**Q.** And the viscosity ([2]; 323.15 K)?
**A.** 1.652 ± 0.014 mPa·s

**Q.** What about the mass density ([2]; 323.15 K) of the same molecule?
**A.** 778.14 ± 1.6 kg/m3

**Q.** Which refractive index ([1]; 288.15 K) does the source give for CC(C)CO [2-methyl-1-propanol] + CCOC(=O)CCC(=O)OCC here?
**A.** 1.3978 ± 0.0028

**Q.** And the refractive index ([1]; 293.15 K)?
**A.** 1.3958 ± 0.0028

**Q.** And the refractive index ([1]; 298.15 K)?
**A.** 1.3937 ± 0.0028

**Q.** And the refractive index ([1]; 303.15 K)?
**A.** 1.3916 ± 0.0028

**Q.** What about the refractive index ([1]; 308.15 K) of the same molecule?
**A.** 1.3895 ± 0.0028

**Q.** What about the refractive index ([1]; 313.15 K) of the same molecule?
**A.** 1.3874 ± 0.0028

**Q.** And the refractive index ([1]; 318.15 K)?
**A.** 1.3853 ± 0.0028

**Q.** And the refractive index ([1]; 323.15 K)?
**A.** 1.383 ± 0.0028

**Q.** What about the viscosity ([2]; 288.15 K) of the same molecule?
**A.** 4.829 ± 0.039 mPa·s

**Q.** What about the mass density ([2]; 288.15 K) of the same molecule?
**A.** 805.88 ± 1.6 kg/m3

**Q.** And the viscosity ([2]; 293.15 K)?
**A.** 4.052 ± 0.033 mPa·s

**Q.** What about the mass density ([2]; 293.15 K) of the same molecule?
**A.** 802.03 ± 1.6 kg/m3

**Q.** What about the viscosity ([2]; 298.15 K) of the same molecule?
**A.** 3.431 ± 0.028 mPa·s

**Q.** What about the mass density ([2]; 298.15 K) of the same molecule?
**A.** 798.16 ± 1.6 kg/m3

**Q.** And the viscosity ([2]; 303.15 K)?
**A.** 2.923 ± 0.024 mPa·s

**Q.** What about the mass density ([2]; 303.15 K) of the same molecule?
**A.** 794.25 ± 1.6 kg/m3

**Q.** What about the viscosity ([2]; 308.15 K) of the same molecule?
**A.** 2.505 ± 0.021 mPa·s

**Q.** What about the mass density ([2]; 308.15 K) of the same molecule?
**A.** 790.31 ± 1.6 kg/m3

**Q.** And the viscosity ([2]; 313.15 K)?
**A.** 2.161 ± 0.018 mPa·s

**Q.** What about the mass density ([2]; 313.15 K) of the same molecule?
**A.** 786.31 ± 1.6 kg/m3

**Q.** What about the viscosity ([2]; 318.15 K) of the same molecule?
**A.** 1.875 ± 0.016 mPa·s

**Q.** What about the mass density ([2]; 318.15 K) of the same molecule?
**A.** 782.26 ± 1.6 kg/m3

**Q.** And the viscosity ([2]; 323.15 K)?
**A.** 1.652 ± 0.014 mPa·s

**Q.** What about the mass density ([2]; 323.15 K) of the same molecule?
**A.** 778.14 ± 1.6 kg/m3

**Q.** With CC(C)CCO [3-methylbutan-1-ol] + CCCCCCCC(=O)OCC as the molecule, how does the refractive index ([1]; 288.15 K) read?
**A.** 1.4087 ± 0.0028

**Q.** What about the refractive index ([1]; 293.15 K) of the same molecule?
**A.** 1.4067 ± 0.0028

**Q.** And the refractive index ([1]; 298.15 K)?
**A.** 1.4047 ± 0.0028

**Q.** What about the refractive index ([1]; 303.15 K) of the same molecule?
**A.** 1.4026 ± 0.0028

**Q.** And the refractive index ([1]; 308.15 K)?
**A.** 1.4005 ± 0.0028

**Q.** What about the refractive index ([1]; 313.15 K) of the same molecule?
**A.** 1.3985 ± 0.0028

**Q.** And the refractive index ([1]; 318.15 K)?
**A.** 1.3964 ± 0.0028

**Q.** And the refractive index ([1]; 323.15 K)?
**A.** 1.3943 ± 0.0028

**Q.** What about the viscosity ([2]; 288.15 K) of the same molecule?
**A.** 5.057 ± 0.047 mPa·s

**Q.** And the mass density ([2]; 288.15 K)?
**A.** 812.29 ± 1.6 kg/m3

**Q.** What about the viscosity ([2]; 293.15 K) of the same molecule?
**A.** 4.287 ± 0.04 mPa·s

**Q.** What about the mass density ([2]; 293.15 K) of the same molecule?
**A.** 808.58 ± 1.6 kg/m3

**Q.** And the viscosity ([2]; 298.15 K)?
**A.** 3.671 ± 0.035 mPa·s

**Q.** What about the mass density ([2]; 298.15 K) of the same molecule?
**A.** 804.84 ± 1.6 kg/m3

**Q.** What about the viscosity ([2]; 303.15 K) of the same molecule?
**A.** 3.155 ± 0.03 mPa·s

**Q.** And the mass density ([2]; 303.15 K)?
**A.** 801.09 ± 1.6 kg/m3

**Q.** What about the viscosity ([2]; 308.15 K) of the same molecule?
**A.** 2.73 ± 0.026 mPa·s

**Q.** And the mass density ([2]; 308.15 K)?
**A.** 797.31 ± 1.6 kg/m3

**Q.** And the viscosity ([2]; 313.15 K)?
**A.** 2.375 ± 0.023 mPa·s

**Q.** And the mass density ([2]; 313.15 K)?
**A.** 793.51 ± 1.6 kg/m3

**Q.** And the viscosity ([2]; 318.15 K)?
**A.** 2.076 ± 0.02 mPa·s

**Q.** What about the mass density ([2]; 318.15 K) of the same molecule?
**A.** 789.67 ± 1.6 kg/m3

**Q.** What about the viscosity ([2]; 323.15 K) of the same molecule?
**A.** 1.841 ± 0.018 mPa·s

**Q.** What about the mass density ([2]; 323.15 K) of the same molecule?
**A.** 785.79 ± 1.6 kg/m3

**Q.** Which refractive index ([1]; 288.15 K) does the source give for CC(C)CCO [3-methylbutan-1-ol] + CCOC(=O)CCC(=O)OCC here?
**A.** 1.4087 ± 0.0028

**Q.** And the refractive index ([1]; 293.15 K)?
**A.** 1.4067 ± 0.0028

**Q.** What about the refractive index ([1]; 298.15 K) of the same molecule?
**A.** 1.4047 ± 0.0028

**Q.** And the refractive index ([1]; 303.15 K)?
**A.** 1.4026 ± 0.0028

**Q.** And the refractive index ([1]; 308.15 K)?
**A.** 1.4005 ± 0.0028

**Q.** And the refractive index ([1]; 313.15 K)?
**A.** 1.3985 ± 0.0028

**Q.** And the refractive index ([1]; 318.15 K)?
**A.** 1.3964 ± 0.0028

**Q.** And the refractive index ([1]; 323.15 K)?
**A.** 1.3943 ± 0.0028

**Q.** What about the viscosity ([2]; 288.15 K) of the same molecule?
**A.** 5.057 ± 0.047 mPa·s

**Q.** What about the mass density ([2]; 288.15 K) of the same molecule?
**A.** 812.29 ± 1.6 kg/m3

**Q.** What about the viscosity ([2]; 293.15 K) of the same molecule?
**A.** 4.287 ± 0.04 mPa·s

**Q.** And the mass density ([2]; 293.15 K)?
**A.** 808.58 ± 1.6 kg/m3

**Q.** And the viscosity ([2]; 298.15 K)?
**A.** 3.671 ± 0.035 mPa·s

**Q.** What about the mass density ([2]; 298.15 K) of the same molecule?
**A.** 804.84 ± 1.6 kg/m3

**Q.** What about the viscosity ([2]; 303.15 K) of the same molecule?
**A.** 3.155 ± 0.03 mPa·s

**Q.** What about the mass density ([2]; 303.15 K) of the same molecule?
**A.** 801.09 ± 1.6 kg/m3

**Q.** What about the viscosity ([2]; 308.15 K) of the same molecule?
**A.** 2.73 ± 0.026 mPa·s

**Q.** And the mass density ([2]; 308.15 K)?
**A.** 797.31 ± 1.6 kg/m3

**Q.** And the viscosity ([2]; 313.15 K)?
**A.** 2.375 ± 0.023 mPa·s

**Q.** What about the mass density ([2]; 313.15 K) of the same molecule?
**A.** 793.51 ± 1.6 kg/m3

**Q.** And the viscosity ([2]; 318.15 K)?
**A.** 2.076 ± 0.02 mPa·s

**Q.** What about the mass density ([2]; 318.15 K) of the same molecule?
**A.** 789.67 ± 1.6 kg/m3

**Q.** And the viscosity ([2]; 323.15 K)?
**A.** 1.841 ± 0.018 mPa·s

**Q.** And the mass density ([2]; 323.15 K)?
**A.** 785.79 ± 1.6 kg/m3

**Q.** What does the source list for CCCCCCCC(=O)OCC [ethyl octanoate]?
**A.** viscosity ([3]; 288.15 K): 1.686 ± 0.022 mPa·s; mass density ([3]; 288.15 K): 870.88 ± 1.7 kg/m3; viscosity ([3]; 293.15 K): 1.537 ± 0.02 mPa·s; mass density ([3]; 293.15 K): 866.58 ± 1.7 kg/m3; viscosity ([3]; 298.15 K): 1.41 ± 0.019 mPa·s; mass density ([3]; 298.15 K): 862.28 ± 1.7 kg/m3; viscosity ([3]; 303.15 K): 1.298 ± 0.017 mPa·s; mass density ([3]; 303.15 K): 857.98 ± 1.7 kg/m3; viscosity ([3]; 308.15 K): 1.2 ± 0.016 mPa·s; mass density ([3]; 308.15 K): 853.68 ± 1.7 kg/m3; viscosity ([3]; 313.15 K): 1.118 ± 0.015 mPa·s; mass density ([3]; 313.15 K): 849.37 ± 1.7 kg/m3; viscosity ([3]; 318.15 K): 1.035 ± 0.014 mPa·s; mass density ([3]; 318.15 K): 845.06 ± 1.7 kg/m3; viscosity ([3]; 323.15 K): 0.9708 ± 0.013 mPa·s; mass density ([3]; 323.15 K): 840.74 ± 1.7 kg/m3; refractive index ([4]; 288.15 K): 1.4199 ± 0.0028; refractive index ([4]; 293.15 K): 1.4177 ± 0.0028; refractive index ([4]; 298.15 K): 1.4155 ± 0.0028; refractive index ([4]; 303.15 K): 1.4132 ± 0.0028; refractive index ([4]; 308.15 K): 1.411 ± 0.0028; refractive index ([4]; 313.15 K): 1.4088 ± 0.0028; refractive index ([4]; 318.15 K): 1.4066 ± 0.0028; refractive index ([4]; 323.15 K): 1.4044 ± 0.0028
